Measured values: article PMC6656724 (Communications Biology, 2019)
≈ marks a conversion by molar mass, not a printed value. Entries after “also recorded” stand apart in the source; their conditions may differ. Read-outs that look alike come from different tables or passages of the source.

Legend:
[1] = Kinetic solubility in PBS, pH 7.4 (2% DMSO); assay type: physicochemical; details: for solubility at 2 h: PBS with 2% DMSO, pH 7.4, aqueous buffer, kinetic from dmso stock, PBS, pH 7.4 (2% DMSO)
K562 cells = test: Competition assay for uptake of riboflavin; assay type: cell-based, Human; parameters: key to Mean FL2-A, compound only: relative fluorescence units; details: for Mean FL2-A, compound + riboflavin (RF): 1 µM riboflavin plus 100 µM compound; for Inhibition of riboflavin uptake: 1 µM riboflavin; for Inhibition of riboflavin uptake / Mean FL2-A, compound only: compound 100 µM
Description: Riboflavin transporters are equilibrative rather than concentrative, and the uptake of the inhibitors would be hard to measure directly. To assess whether the KMO inhibitors were substrates for riboflavin transporters, we assessed their ability to compete with riboflavin for uptake into cells. Riboflavin is intensely fluorescent, and is taken up in human cells by three main transporters SLC52A1, SLC52A2 and SLC52A3[28]. […] Consequently, we incubated cells with 1 μM riboflavin in the absence and presence of the various KMO inhibitors. There was a background fluorescence of some 100 relative fluorescence units. […] The data are summarised in Fig. 3c, and are consistent with the view that at least some of the KMO inhibitor uptake is likely to go via riboflavin transporters.
Supplementary Figure 15. A. Uptake of riboflavin into K562 cells. K562 cells were suspended in Dulbecco's phosphate-buffered saline (DPBS) supplemented with 5 mM glucose + 1 % fetal bovine serum (FBS) at a density of 0.5 x 10^6 cells/mL.
Compounds were added to Eppendorf tubes and DMSO removed through drying (vacuum centrifuge). Riboflavin was present at 1 µM and inhibitor 1 or prodrugs at 100 µM. 500 µL cells were added to Eppendorf tubes (containing the compound(s) of interest) and fluorescence measured immediately (excitation 488 nm, emission 525 ± 25nm) in a SONY SH800 flow cytometer over 300 s. Cells were maintained at 37 ℃ throughout in a water bath. Each symbol is the mean fluorescence of ~30 cells observed over a period of 1s. Purple, 1 µM riboflavin only; Red, 100 µM compound only; Blue, 1 µM riboflavin plus 100 µM compound; Green, no additions (control).
Note that the external concentration of riboflavin was rather critical, as the riboflavin transporters also catalyse exchange reactions with their various substrates. B.
Structures of KMO inhibitors and prodrugs and riboflavin, and their maximum common substructures (shown as a blue oval on 1). C. Gating strategy employed in this assay. Gate applied to K562 cell population is marked with a black line. SSC, side scatter, FSC, Forward scatter.
(1 picture or pasted object on this page, not shown here)

[2] = molecular target: T1, Pseudomonas fluorescens KMO (PfKMO) (Pseudomonas fluorescens, UniProt Q84HF5, C252S/C461S); test: biochemical
T1 construct: made in house; host or cells: E. coli BL21 (DE3)
T1 sequence (Q84HF5 whole entry C252S/C461S): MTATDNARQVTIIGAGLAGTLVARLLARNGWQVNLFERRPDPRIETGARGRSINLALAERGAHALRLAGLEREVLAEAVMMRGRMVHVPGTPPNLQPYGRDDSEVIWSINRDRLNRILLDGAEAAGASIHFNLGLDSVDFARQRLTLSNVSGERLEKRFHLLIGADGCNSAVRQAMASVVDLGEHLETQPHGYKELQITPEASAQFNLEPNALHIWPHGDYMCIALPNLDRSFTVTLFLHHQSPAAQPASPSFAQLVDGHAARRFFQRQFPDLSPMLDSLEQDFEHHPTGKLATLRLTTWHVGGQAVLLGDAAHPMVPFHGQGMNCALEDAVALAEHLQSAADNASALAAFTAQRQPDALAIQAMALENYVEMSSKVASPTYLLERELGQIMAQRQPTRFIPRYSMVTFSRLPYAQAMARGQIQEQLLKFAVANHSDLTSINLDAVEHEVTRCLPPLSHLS
Outline: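 NADPH consumption followed at 340 nm, initial rates from linear fits, triplicate. IC50 from % inhibition vs inhibitor concentration fitted to the Morrison equation.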

Homo sapiens KMO (HsKMO) = molecular target: T2, Homo sapiens KMO (HsKMO) (Homo sapiens, UniProt O15229); test: KMO inhibition assay, NADPH oxidation at 340 nm (HsKMO); assay type: biochemical
T2 construct: GST; made in house
T2 sequence (O15229 whole entry): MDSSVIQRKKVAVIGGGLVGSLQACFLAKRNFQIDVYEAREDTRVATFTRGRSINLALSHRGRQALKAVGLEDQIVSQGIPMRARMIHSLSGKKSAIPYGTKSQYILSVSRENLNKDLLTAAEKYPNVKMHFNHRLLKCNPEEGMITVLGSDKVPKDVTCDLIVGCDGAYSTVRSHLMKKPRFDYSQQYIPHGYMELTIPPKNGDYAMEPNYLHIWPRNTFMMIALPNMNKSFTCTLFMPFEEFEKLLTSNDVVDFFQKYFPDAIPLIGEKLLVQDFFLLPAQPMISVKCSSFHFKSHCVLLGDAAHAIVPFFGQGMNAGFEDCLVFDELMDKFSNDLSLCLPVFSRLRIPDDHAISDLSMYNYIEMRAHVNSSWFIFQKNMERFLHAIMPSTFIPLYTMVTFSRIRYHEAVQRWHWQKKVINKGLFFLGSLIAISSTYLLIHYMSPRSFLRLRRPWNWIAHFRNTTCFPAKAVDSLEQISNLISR

| SMILES | Kinetic solubility (in words) [1] | solubility at 2 h ([1]; read-out: Solubility Mean) [µM] | solubility at 2 h ([1]; read-out: Solubility n=1) [µM] | solubility at 2 h ([1]; read-out: Solubility n=2) [µM] | Mean FL2-A, compound + riboflavin (RF) (K562 cells; time 1) | Mean FL2-A, compound + riboflavin (RF) (K562 cells; time 2) | Mean FL2-A, compound + riboflavin (RF) (K562 cells; time 3) | Inhibition of riboflavin uptake (K562 cells) | Mean FL2-A, compound only (K562 cells; time 1) | Mean FL2-A, compound only (K562 cells; time 2) | Mean FL2-A, compound only (K562 cells; time 3) | IC50 [2] [µM] | IC50 (Homo sapiens KMO (HsKMO)) [µM] |
| --- | --- | --- | --- | --- | --- | --- | --- | --- | --- | --- | --- | --- | --- |
| Cc1cc2c(c(C)c1Cl)N(CC(=O)O)C(=O)CO2 [compound 1, (6-chloro-5,7-dimethyl-3-oxo-2,3-dihydro-4H-1,4-benzoxazin-4-yl) acetic acid] | good | 193 (≈ 52 µg/mL) | 191 (≈ 51.5 µg/mL) | 194 (≈ 52.3 µg/mL) | 57.8501 | 68.195 | 76.5831 | inhibit riboflavin uptake | 58.5977 | 60.0072 | 67.7034 | – | – |
| Cc1cc2c(c(C)c1Cl)N(CC(=O)OC(C)C)C(=O)CO2 [1c] | – | – | – | – | 59.0947 | 60.924 | 73.4972 | inhibit riboflavin uptake | 60.7763 | 66.3048 | 65.3995 | > 300 | > 300 |
| Oc1ccc(-c2csc3nc(-c4ccccc4)nn23)c(O)c1 [compound 3, 4-(2-phenyl[1,2,4]triazolo[5,1-b][1,3]thiazol-6-yl)benzene-1,3-diol] | – | 67 (≈ 20.7 µg/mL) | 68 (≈ 21 µg/mL) | 65 (≈ 20.1 µg/mL) | – | – | – | – | – | – | – | 74.7 ± 8 | 2.3 |
| CCOC(=O)CN1C(=O)COc2cc(C)c(Cl)c(C)c21 [1b] | – | – | – | – | 68.4214 | 59.9856 | 60.5407 | inhibit riboflavin uptake; also recorded: higher inhibition | 59.4089 | 74.4694 | 63.9701 | > 300 | > 500 |
| Cn1c(C(=O)N[C@@H](C(=O)O)c2ccccc2)cc2cc(F)ccc21 [compound 5, (R)-2-(5-fluoro-1-methyl-1H-indole-2-carboxamido)-2-phenylacetic acid] | – | 185 (≈ 60.4 µg/mL) | 186 (≈ 60.7 µg/mL) | 183 (≈ 59.7 µg/mL) | – | – | – | – | – | – | – | 123 ± 8 | 55.3 |
| Cc1cc2c(c(C)c1Cl)N(Cc1nn[nH]n1)C(=O)CO2 [1h, 6-chloro-5,7-dimethyl-4-(2H-tetrazol-5-ylmethyl)-1,4-benzoxazin-3-one] | – | – | – | – | – | – | – | – | – | – | – | 17 ± 0.43 | 1.28 ± 0.08 |
| COC(=O)CN1C(=O)COc2cc(C)c(Cl)c(C)c21 [1a] | – | – | – | – | 66.6886 | 77.0559 | 76.3441 | inhibit riboflavin uptake | 62.8068 | 65.3939 | 65.9534 | > 500 | ~500 |
| CC(CSc1ccc(Cl)cc1)C(=O)O (stereo not shown) [compound 6, 3-[(4-chlorophenyl)thio]-2-methylpropanoic acid] | – | 187 (≈ 43.1 µg/mL) | 186 (≈ 42.9 µg/mL) | 188 (≈ 43.4 µg/mL) | – | – | – | – | – | – | – | 85.6 ± 4.4 | 68.6 |
